Results taken from PMC12081905, “Ortho-functionalization of a ^211At-labeled aryl compound provides stabilization of the C-At bond against oxidative dehalogenation” (Scientific Reports, 2025).

Key:
[1] = Stability assay in oxidizing/acidic medium (chemical oxidation assay, KMnO4); format: physicochemical; conditions: radio-HPLC
Procedure: Stability of ^211At-labeled compounds in oxidizing media. […] Adapted from Teze et al.[10], it consists in an incubation of the ^211At-labeled product in 50 mM acetate buffer (pH = 4.7) containing a 1 mM potassium permanganate solution (Fig. 5).
(§1) ^211At was produced at the Arronax cyclotron facility using the ^209Bi(α,2n) ^211At reaction and recovered from the irradiated target in chloroform using a dry distillation protocol adapted from the procedure previously reported by Lindegren et al.[26] Before use, the ^211At solution was reduced to dryness under a gentle stream of nitrogen. […] To quantify free astatine that remains trapped in the HPLC system during the elution, 50 µL of an aqueous sodium sulfite solution (10 mg mL^−1) were injected after each analysis to release free astatine from the HPLC system with the flow rate set at 1.20 mL/min with the following gradient: t = 0: 90% A, 10% B; t = 2–6 min: 100% B with A = H2O with 0.05% TFA and B = CH3CN with 0.05% TFA. The non-radioactive iodinated compounds were analyzed using this HPLC system and their retention times were used as references for identification of their astatinated analogues. […]
Each peak is then integrated, providing each peak area (noted A(A), A(B) etc…) to quantify the species present. […]

[2] = system: human liver microsomes (CYP450); test: Stability assay in human liver microsomal medium with NADPH regeneration system; format: in vitro ADME; conditions: 37 °C, radio-HPLC
Text: (§2) Since oxidation by CYP450 enzymes is a plausible cause of oxidative deastatination within targeted cells or in the liver, we also assessed the stability of our compounds against liver microsomes. Liver microsomes contain CYP450, a family of oxidase enzymes that were used in our assay, adapted from Schmitt et al.[14] and using a nicotinamide adenine dinucleotide phosphate (NADPH) redox regeneration system to regenerate the redox properties of CYP450. For comparison, we performed the stability assay in rat and human liver microsomes (Fig. 7).
as §1, with “al.[26]” for “al.[26] Before use, the ^211At solution was reduced to dryness under a gentle stream of nitrogen.”

[3] = system: rat liver microsomes (CYP450); test: Stability assay in rat liver microsomal medium with NADPH regeneration system; format: in vitro ADME; conditions: 37 °C, radio-HPLC
Text: as §2
as §1, with “al.[26]” for “al.[26] Before use, the ^211At solution was reduced to dryness under a gentle stream of nitrogen.”

[4] = design: method as in PMID 28566709; conditions: DFT, resulting oxidized compounds; cited from earlier work

CCNC(=O)c1cccc([211At])c1 [[^211At]AEB, 3-[^211At]astato-N-ethylbenzamide]
fate of the starting 211At-compound in oxidizing medium ([1]; 50 mM acetate buffer pH 4.7, 1 mM KMnO4, up to 20 h): almost complete degradation
starting compound / metabolites after 20 h incubation in human microsomes [2]: practically no presence of the starting compound
starting compound / metabolites after 20 h incubation in rat microsomes [3]: practically no presence of the starting compound

CCOC(=O)c1cccc([211At])c1 [compound 1, ethyl 3-[^211At]astatobenzoate]
bond dissociation energy of the carbon-halogen bond [4]: 28.2 kcal mol^−1

OCc1ccccc1[211At] [compound 2, (2-[^211At]astatophenyl)methanol]
free astatine (release of astatine) after 20 h incubation in oxidizing medium ([1]; 50 mM acetate buffer pH 4.7, 1 mM KMnO4, room temperature, 20 h, n = 3): 12%
